Laboratory results published in patent US6365616B1, “Methimazole derivatives and tautomeric cyclic thiones to treat autoimmune diseases” (Sentron Medical, Inc., priority 1998, dated 2002).
Read-outs that look alike come from different tables or passages of the source.

What was measured:
[1] = test system: swine class I promoter (PD1); experiment: Transient transfection CAT assay, class I promoter chimeras in FRTL-5 cells; format: cell-based; details: for inhibition at 10 µM / inhibition at 25 µM / inhibition at 100 µM / inhibition at 1000 µM / inhibition at 5000 µM: Sus scrofa, FRTL-5; for inhibition at 10 µM / inhibition at 25 µM / inhibition at 100 µM / inhibition at 1000 µM / inhibition at 5000 µM / % inhibition of IFN-increased p(−203)CAT class I promoter activity: 6H medium; for CAT activity +γIFN (100 U/ml) + MMI (5 mM): 5H medium
From the text: The full length PD1 promoter, PD1 CAT construct pH […], inserted into the multicloning site of pSV3CAT, has been previously described (Erhlich, R. et al. Immunogenetics 30:18-26 (1989)). […] The deletion series was also cloned into the pSV3CAT reporter construct to assess promoter activities (Weisman J D, et al. ibid (1991); Maguire, J. et al., Mol. Cell. Biol., 12:3078-3086 (1992)). […] The number denotes the most 5′-residue in the 5′-flanking region of the PD1 promoter.
FRTL-5 rat thyroid cells (Interthyr Research Foundation, Baltimore, Md.; ATCC CRL8305) were the same subclone (F1) used in the gel shift experiments described earlier. They were grown in the following medium: Coon's modified F-12 medium containing 5% heat-treated, mycoplasma-free calf serum, 1 mM nonessential amino acids, and a mixture of six hormones (6H) containing bovine TSH (1×10^−10M), insulin (10 μg/ml), cortisol (0.4 ng/ml), transferrin (5 μg/ml), glycyl-L-histidyl-L-lysine acetate (10 ng/ml), and somatostatin (10 ng/ml). Cells were diploid and between their 5th and 25th passage. Fresh medium was added every 2 or 3 days and cells were passaged every 7-10 days. In some experiments, cells were grown to near confluency in 6H medium then maintained for 5-8 days, before experiments were initiated, in 5H medium with no TSH.
To measure the promoter activity of MHC class I promoter constructs, as reported by CAT activity, two procedures were used. In one, rat FRTL-5 thyroid cells were transfected by the electroporation method described previously (Saji, M., et al., ibid (1992b); Giuliani, C., et al., ibid (1995); Saji, M., et al., ibid (1997)). In brief, FRTL-5 cells were grown to 80% confluence, put in fresh 6H medium containing 5% calf serum for 12 hours, harvested, washed and suspended at 1.5×10^7 cells/mil in 0.8 ml electroporation buffer (272 mM sucrose, 7 mM sodium phosphate at pH 7.4, and 1 mM MgCl2). Twenty μg of the full-length CAT construct were added with 5 μg pSVGH. Cells were then pulsed (330 volts, capacitance 25 μfarad), plated (approximately 6×10^6 cell/dish), and cultured for 12 hours in 6H medium containing 5% calf serum. […] After 48 hours they were harvested. […] Medium was taken for hGH radioimmunoassay to monitor transfection efficiency (Nichols Institute, San Juan Capistrano, Calif.) and cells were harvested for CAT assays which used 20-50 μg cell lysate in a final volume of 130 μl. Incubation was at 37° C. for 2 or 4 hours; acetylated chloramphenicol was separated by thin layer chromatograpy (TLC) and positive spots on TLC plates were cut out and quantitated in a scintillation spectrometer. CAT activity was normalized to GH activity and/or cell protein before data were compared.
Alternatively transient transfections used the same class I-CAT chimeras and a DEAE-dextran procedure (Lopata M A, et al., Nucleic Acids Res. 12:5707-5717 (1984); Giuliani C, et al., ibid (1995)). Cells were grown to near (80%) confluency in 6H medium, shifted to 5H medium for 1 day, washed twice with Dulbecco's modified phosphate buffered saline (DPBS), pH 7.4, and incubated 1 hour with 5 ml serum-free 5H medium containing the plasmid DNA plus 250 μg DEAE-dextran (5 Prime-3 Prime, Inc.). Cells were then exposed to 10% dimethylsulfoxide in DPBS for 3 min., washed twice in DPBS, cultured in 5H medium for 24 hours, then maintained therein another 48 hours with or without MMI, MMI derivatives or tautomeric cyclic thiones, as noted. Efficiency of transfection was determined by cotransfection as above or with 5 μg pRSVLuc (De Wet J R, et al., Mol. Cell. Biol. 7:725-737 (1987)).
In this experiment, FRTL-5 cells were grown to near confluency in 6H medium (plus TSH) and then were maintained in 5H medium (no TSH) for 7 days before being treated with γ-IFN or γ-IFN plus MMI for 40 hours. Control cells were those maintained in 5H medium for the same 40 hours. CAT activity was measured as described above.

[2] = test system: MHC class I antigen expression; experiment: Flow cytometry of IFN-increased class I antigen expression in FRTL-5 cells; format: cell-based, rat; details: 100 U/ml γ-interferon, 6H medium (TSH), 40 hours
Procedure: (§1) In this experiment 10^6 cells were incubated with MHC class II or MHC class I-specific antibodies as described (Montani, V., et al., ibid (1998b); Saji, M., et al., ibid (1992a); Balducci-Silano, P. L., et al., Endocrinology 139:2309-2313 (1998)). After 30 min on ice, cells were washed with phosphate buffered saline at pH 7.4 and incubated for 30 min with fluorescein-isothiocyanate (FITC)-conjugated antibodies then analyzed by flow cytometry on a FACScan Cytometer using CellQuest software (Becton Dickinson).
(§2) The concentration needed to achieve suppression of the interferon induced class I or class II surface expression was determined by testing different concentrations of the compounds (Table 18). Like all other assays, the order of effectiveness was compound 10>11>7 or 8>2>MMI>3.

[3] = test system: MHC class II antigen expression; experiment: Flow cytometry of IFN-increased class II antigen expression in FRTL-5 cells; format: cell-based, rat; details: for Concentration to inhibit IFN-increased antigen expression, Class II: 100 U/ml γ-interferon, 6H medium (TSH), 40 hours
Procedure: […] 13 and 14. Cells were stained with a fluorescein isothiocyanate conjugated class II-specific monoclonal antibody to RT1.B (clone OX-6, Sera Labs, UK) for 60 min at 4° C., washed twice with Dulbecco's phosphate buffered saline, and subjected to laser flow cytometry.
as §1, §2

[4] = test system: Y box protein (TSEP-1) RNA; experiment: Northern analysis of Y box protein (TSEP-1) RNA levels in FRTL-5 cells; format: cell-based, rat; details: 40 hours
From the text: Whereas γ-IFN decreases Y box protein RNA levels in FRTL-5 cells, MMI can reverse this action (FIG. 16). […] The rat TSEP-1 probe was the clone 31 insert, residues 5 to 1395 of the rat TSEP-1 nucleotide sequence reported (Ohmori, M., et al., ibid (1996)); rat β-actin was kindly provided by Dr. B. Paterson (NCI, Bethesda, Md.). Radiolabeling of all probes, hybridization (0.5-1.0×10^6cpm/ml), and washing were as described (Isozaki, O., et al., ibid (1989); Saji, M., et al., ibid (1992); Ohmori, M., et al., ibid (1996)).
The ability of the compounds to reverse the γ-IFN-induced decrease in TSEP-1 RNA levels is once again 10>11>7 or 8>2>MMI>3. This mimics data in all other assays.

[5] = 10 μM, 100 U/ml γ-interferon, 40 hours, read-out: % inhibition of IFN-increased p(−203)CAT class I promoter activity
[6] = 36 hours, read-out: % inhibition of basal p(−203)CAT class I promoter activity
[7] = 100 μM, 36 hours, read-out: % inhibition of basal p(−203)CAT class I promoter activity
[8] = 100 μM, 100 U/ml γ-interferon, 40 hours, read-out: % inhibition of IFN-increased p(−203)CAT class I promoter activity
[9] = 1.0 mM, 36 hours, read-out: % inhibition of basal p(−203)CAT class I promoter activity
[10] = 1.0 mM, 100 U/ml γ-interferon, 40 hours, read-out: % inhibition of IFN-increased p(−203)CAT class I promoter activity
[11] = 5 mM, 36 hours, read-out: % inhibition of basal p(−203)CAT class I promoter activity
[12] = 5 mM, 100 U/ml γ-interferon, 40 hours, read-out: % inhibition of IFN-increased p(−203)CAT class I promoter activity

Row | SMILES | inhibition at 10 µM [1, 5] | inhibition at 25 µM [1, 6] | inhibition at 100 µM [1, 7] | inhibition at 100 µM [1, 8] | inhibition at 1000 µM [1, 9] | inhibition at 1000 µM [1, 10] | inhibition at 5000 µM [1, 11] | inhibition at 5000 µM [1, 12] | Concentration to inhibit IFN-increased antigen expression, Class I [2] | Concentration to inhibit IFN-increased antigen expression, Class II [3] | Y box protein (TSEP-1) RNA level, compound +γIFN ([4]; 100 μM compound + γIFN) | Y box protein (TSEP-1) RNA level, compound ALONE ([4]; 100 μM compound alone) | Y box protein (TSEP-1) RNA level, compound +γIFN ([4]; 1 mM compound + γIFN) | Y box protein (TSEP-1) RNA level, compound ALONE ([4]; 1 mM compound alone) | Y box protein (TSEP-1) RNA level, compound +γIFN ([4]; 5 mM compound + γIFN) | Y box protein (TSEP-1) RNA level, compound ALONE ([4]; 5 mM compound alone) | other results
1 | CSc1nccn1C [Compound 7, S-Methylmethimazole] | 0% | 0% | 10 ± 9% | 14 ± 11% | 51 ± 6% | 50 ± 13% | 68 ± 8% | 58 ± 12% | 0.424 ± 0.031 mM | 0.405 ± 0.015 mM | 83 ± 10% | 111 ± 16% | 133 ± 15% | 108 ± 4% |  |  | 
2 | Cc1ncc([N+](=O)[O-])n1CCO [Compound 2, 2-Methyl-5-nitro-1-imidazole ethanol] | 0% | 0% | 10 ± 8% | 0% | 37 ± 11% | 45 ± 5% | 74 ± 9% | 84 ± 13% | 0.5 ± 1.4 mM | 1.5 ± 1.0 mM | 43 ± 6% | 104 ± 4% | 126 ± 9% | 106 ± 11% | 163 ± 15% | 112 ± 4% | 
3 | Cn1ccnc1S [Compound 1, 1-Methylimidazole-2-thiol] | 0% | 0% | 0% | 0% | 32 ± 7% | 35 ± 8% | 74 ± 10% | 72 ± 12% | 5 mM | 5 mM | 42 ± 7% | 105 ± 8% | 87 ± 7% | 104 ± 12% | 149 ± 12% | 115 ± 9% | CAT activity +γIFN (100 U/ml) + MMI (5 mM) ([1]; chimera p(−127), 40 hours): 55 ± 4 % of Control; CAT activity +γIFN (100 U/ml) + MMI (5 mM) ([1]; chimera p(−203), 40 hours): 95 ± 26 % of Control; CAT activity +γIFN (100 U/ml) + MMI (5 mM) ([1]; chimera p(−1100), 40 hours): 163 ± 48 % of Control; CAT activity +γIFN (100 U/ml) + MMI (5 mM) ([1]; pSV0 control plasmid, 40 hours): 38 ± 9 % of Control; endogenous class II antigen expression on the cell surface (flow cytometry, FIG. 12) ([3]; 5 mM MMI with 100 U/ml γ-IFN, 48 hours): decreased endogenous class II antigen expression
4 | Sc1ncc[nH]1 [Compound 3, 2-Mercaptoimidazole] |  |  |  |  |  |  |  |  | No Inhibition | No Inhibition | 42 ± 11% | 102 ± 7% | 42 ± 5% | 94 ± 6% | 47 ± 4% | 100 ± 8% | % inhibition of IFN-increased p(−203)CAT class I promoter activity ([1]; 10 μM, 100 U/ml γ-interferon, 40 hours): None; % inhibition of IFN-increased p(−203)CAT class I promoter activity ([1]; 100 μM, 100 U/ml γ-interferon, 40 hours): None; % inhibition of IFN-increased p(−203)CAT class I promoter activity ([1]; 1.0 mM, 100 U/ml γ-interferon, 40 hours): None; % inhibition of IFN-increased p(−203)CAT class I promoter activity ([1]; 5 mM, 100 U/ml γ-interferon, 40 hours): None
